Reference: patent US20240247080A1, “GLP1/GIP/NPY2 RECEPTOR TRIPLE AGONISTS” (Boehringer Ingelheim International GmbH, priority 2022, published 2024)
pEC50: −log10 of the molar value. Where two headings read alike, the source gives them in different places. Starred links: 1 amine or outer side, 2 acyl side, 3 side chain; linkers in the order of their positions; H or OH if unused. Non-standard residues stand in square brackets, D forms with d. Groups on a side chain read outwards from the residue. No end group written: not given here. *: point of attachment. C20 diacid = O=C(O)CCCCCCCCCCCCCCCCCCC(=O)*; C18 diacid = O=C(O)CCCCCCCCCCCCCCCCC(=O)*; γGlu = O=C(O)[C@H](CCC(=O)[*:2])N[*:1]; εLys = N[C@@H](CCCCN[*:1])C(=O)[*:2]; Tle = CC(C)(C)[C@H](N)C(=O)O; AEEA = NCCOCCOCC(=O)O; Aib = CC(C)(N)C(=O)O

Tests used:
Type in all cases: cell-based
Settings in all cases: CreLuc reporter gene assay
hGLP1R = biological target: T1, hGLP1R (Homo sapiens, UniProt P43220); assay: hGLP1R CreLuc reporter gene assay in 0.5% and 100% plasma
T1 construct: expressed in transfected cells; host or cells: HEK-293 cells carrying a CRE-luciferase reporter gene
T1 sequence (P43220 24-463): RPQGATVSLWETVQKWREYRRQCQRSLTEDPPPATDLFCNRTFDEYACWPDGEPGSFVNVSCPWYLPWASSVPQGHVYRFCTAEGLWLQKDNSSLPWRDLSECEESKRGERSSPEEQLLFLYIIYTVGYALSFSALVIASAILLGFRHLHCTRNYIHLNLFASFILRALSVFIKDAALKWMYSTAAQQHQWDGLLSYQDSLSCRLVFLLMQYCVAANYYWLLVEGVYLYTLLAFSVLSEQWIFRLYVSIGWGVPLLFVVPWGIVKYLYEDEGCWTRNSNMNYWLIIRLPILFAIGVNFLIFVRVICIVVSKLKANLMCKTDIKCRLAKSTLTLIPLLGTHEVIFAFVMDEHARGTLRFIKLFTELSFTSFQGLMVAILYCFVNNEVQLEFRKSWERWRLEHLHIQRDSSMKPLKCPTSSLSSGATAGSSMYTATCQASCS
Outline: (§1)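 HEK-293 cells co-expressing GLP-1 or NPY2 receptor and CHO cells expressing GIP receptor, each carrying a CRE-driven luciferase reporter, were stimulated with peptides for 4 hours at 37 °C. Luminescence was read after Bright-Glo addition. EC50 came from 8-point, four-decade curves fitted by variable-slope non-linear regression.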

hNPY2R = biological target: T2, hNPY2R (Homo sapiens, UniProt P49146); assay: hNPY2R CreLuc reporter gene assay in 0.5% and 100% plasma
T2 construct: expressed in transfected cells; host or cells: HEK-293 cells carrying a CRE-luciferase reporter gene
T2 sequence (P49146 1-381): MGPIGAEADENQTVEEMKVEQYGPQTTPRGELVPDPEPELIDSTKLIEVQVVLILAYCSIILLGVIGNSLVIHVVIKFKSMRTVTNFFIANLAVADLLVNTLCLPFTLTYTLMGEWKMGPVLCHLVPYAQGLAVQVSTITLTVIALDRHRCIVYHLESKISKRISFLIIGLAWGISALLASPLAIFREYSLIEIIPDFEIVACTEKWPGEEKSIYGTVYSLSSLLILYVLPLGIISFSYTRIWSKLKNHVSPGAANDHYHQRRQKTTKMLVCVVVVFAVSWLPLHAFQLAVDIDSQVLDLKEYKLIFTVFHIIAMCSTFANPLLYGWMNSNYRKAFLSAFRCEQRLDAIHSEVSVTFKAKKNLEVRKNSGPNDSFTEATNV
Outline: as §1

hGIPR = biological target: T3, hGIPR (Homo sapiens, UniProt P48546); assay: hGIPR CreLuc reporter gene assay in 0.5% and 100% plasma
T3 construct: expressed in transfected cells; host or cells: CHO cells carrying a CRE-luciferase reporter gene
T3 sequence (P48546 22-466): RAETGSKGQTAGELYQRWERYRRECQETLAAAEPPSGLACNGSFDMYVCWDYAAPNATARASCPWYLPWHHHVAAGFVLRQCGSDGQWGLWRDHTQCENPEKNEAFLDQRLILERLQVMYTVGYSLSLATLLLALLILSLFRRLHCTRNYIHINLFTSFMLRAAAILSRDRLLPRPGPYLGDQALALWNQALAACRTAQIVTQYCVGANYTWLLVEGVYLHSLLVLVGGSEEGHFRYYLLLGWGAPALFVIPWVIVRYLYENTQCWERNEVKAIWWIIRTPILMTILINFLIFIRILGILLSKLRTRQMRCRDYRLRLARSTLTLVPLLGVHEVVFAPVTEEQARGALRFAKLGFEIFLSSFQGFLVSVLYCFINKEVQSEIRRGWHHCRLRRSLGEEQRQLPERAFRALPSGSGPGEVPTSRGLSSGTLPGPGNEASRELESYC
Outline: as §1

[1] = 0.5% human plasma, read-out: hGLP1R 0.5% hP
[2] = 0.5% human plasma, read-out: hNPY2R 0.5% hP
[3] = 0.5% human plasma, read-out: hGIPR 0.5% hP
[4] = 100% human plasma, read-out: hGIPR 100% hP
[5] = 100% human plasma, read-out: hGLP1R 100% hP
[6] = 100% human plasma, read-out: hNPY2R 100% hP

Row | pEC50 (hGLP1R; [1]) | pEC50 (hNPY2R; [2]) | pEC50 (hGIPR; [3]) | pEC50 (hGIPR; [4]) | pEC50 (hGLP1R; [5]) | pEC50 (hNPY2R; [6]) | Compound
1 | 9.89 | 7.69 | 9.89 | 9.12 | – | – | H-Y[Aib]EGTFTSDYSI[Aib]LEKQAQ[Aib]AFVEWLIK([εLys-γGlu-γGlu-γGlu-γGlu-γGlu-γGlu-C20 diacid])GGPSSPASLRHYYNWLTRQRY-NH2 [Compound 95, Y-Aib-E-G-T-F-T-S-D-Y-S-I-Aib-L-E-K-Q-A-Q-Aib-A-F-V-E-W-L-I-K(1,3)-GGPSSPASLRHYYNWLTRQRY-NH2.C20DA-gGlu-gGlu-gGlu-gGlu-gGlu-gGlu-eLys(1,2)]
2 | 10.10 | 7.92 | 9.70 | 8.90 | – | – | H-Y[Aib]EGTFTSDYSI[Aib]LEKQAQ[Aib]AFVQWLIK([γGlu-γGlu-γGlu-γGlu-γGlu-C18 diacid])GGPSEGASLRHYYNWLTRQRY-NH2 [Compound 250, Y-Aib-E-G-T-F-T-S-D-Y-S-I-Aib-L-E-K-Q-A-Q-Aib-A-F-V-Q-W-L-I-K(1,3)-GGPSEGASLRHYYNWLTRQRY-NH2.C18DA-gGlu-gGlu-gGlu-gGlu-gGlu(1,2)]
3 | 10.00 | – | 9.54 | 8.90 | 8.59 | 7.47 | H-Y[Aib]EGTFTSDYSI[Aib]LEKQAQ[Aib]AFVQWLIK([γGlu-γGlu-γGlu-γGlu-γGlu-γGlu-C18 diacid])GGPSEGASLRHYYNWLTRQRY-NH2 [Compound 252, Y-Aib-E-G-T-F-T-S-D-Y-S-I-Aib-L-E-K-Q-A-Q-Aib-A-F-V-Q-W-L-I-K(1,3)-GGPSEGASLRHYYNWLTRQRY-NH2.C18DA-gGlu-gGlu-gGlu-gGlu-gGlu-gGlu(1,2)]
4 | 9.96 | < 7.00 | 9.77 | 8.97 | – | < 6.00 | CC[C@H](C)[C@H](NC(=O)[C@H](CC(C)C)NC(=O)[C@H](Cc1c[nH]c2ccccc12)NC(=O)[C@H](CCC(=O)O)NC(=O)[C@@H](NC(=O)[C@H](Cc1ccccc1)NC(=O)[C@H](C)NC(=O)C(C)(C)NC(=O)[C@H](CCC(N)=O)NC(=O)[C@H](C)NC(=O)[C@H](CCC(N)=O)NC(=O)[C@H](CCCCN)NC(=O)[C@H](CCC(=O)O)NC(=O)[C@H](CC(C)C)NC(=O)C(C)(C)NC(=O)[C@@H](NC(=O)[C@H](CO)NC(=O)[C@H](Cc1ccc(O)cc1)NC(=O)[C@H](CC(=O)O)NC(=O)[C@H](CO)NC(=O)[C@@H](NC(=O)[C@H](Cc1ccccc1)NC(=O)[C@@H](NC(=O)CNC(=O)[C@H](CCC(=O)O)NC(=O)C(C)(C)NC(=O)[C@@H](N)Cc1ccc(O)cc1)[C@@H](C)O)[C@@H](C)O)[C@@H](C)CC)C(C)C)C(=O)N[C@@H](CCCCNC(=O)[C@@H](N)CCCCNC(=O)CC[C@H](NC(=O)CC[C@H](NC(=O)CC[C@H](NC(=O)CC[C@H](NC(=O)CC[C@H](NC(=O)CC[C@H](NC(=O)CCCCCCCCCCCCCCCCCCC(=O)O)C(=O)O)C(=O)O)C(=O)O)C(=O)O)C(=O)O)C(=O)O)C(=O)NCC(=O)NCC(=O)N1CCC[C@H]1C(=O)N[C@@H](CO)C(=O)N[C@@H](CO)C(=O)NCC(=O)N[C@@H](C)C(=O)N[C@@H](CO)C(=O)N[C@H](CC(C)C)C(=O)N[C@@H](CCCNC(=N)N)C(=O)N[C@H](Cc1c[nH]cn1)C(=O)N[C@@H](Cc1ccc(O)cc1)C(=O)N[C@@H](Cc1ccc(O)cc1)C(=O)N[C@@H](CC(N)=O)C(=O)N[C@@H](Cc1c[nH]c2ccccc12)C(=O)N[C@@H](CC(C)C)C(=O)N[C@H](C(=O)N[C@H](CCCNC(=N)N)C(=O)N[C@@H](CCC(N)=O)C(=O)N[C@@H](CCCNC(=N)N)C(=O)N[C@H](Cc1ccc(O)cc1)C(N)=O)[C@@H](C)O [Compound 5, Y-Aib-E-G-T-F-T-S-D-Y-S-I-Aib-L-E-K-Q-A-Q-Aib-A-F-V-E-W-L-I-K(1,3)-G-G-P-S-S-G-A-S-DLeu-R-DHis-Y-Y-N-W-L-T-DArg-Q-R-DTyr-NH2.C20DA-gGlu-gGlu-gGlu-gGlu-gGlu-gGlu-eLys(1,2)]
5 | – | – | 9.28 | 8.80 | 8.14 | 7.34 | H-Y[Aib]EGTFTSDYSI[Aib]LEKQAQ[Aib]EFVEWLIK([εLys-γGlu-γGlu-γGlu-γGlu-γGlu-γGlu-γGlu-C20 diacid])GGPSSGASLRHYYNWLTRQRY-NH2 [Compound 88, Y-Aib-E-G-T-F-T-S-D-Y-S-I-Aib-L-E-K-Q-A-Q-Aib-E-F-V-E-W-L-I-K(1,3)-GGPSSGASLRHYYNWLTRQRY-NH2.C20DA-gGlu-gGlu-gGlu-gGlu-gGlu-gGlu-gGlu-eLys(1,2)]

Continued, compound first:

Row | Compound | pEC50 (hGLP1R; [1]) | pEC50 (hNPY2R; [2]) | pEC50 (hGIPR; [3]) | pEC50 (hGIPR; [4]) | pEC50 (hGLP1R; [5]) | pEC50 (hNPY2R; [6])
6 | H-Y[Aib]EGTFTSDYSI[Aib]LEKQAQ[Aib]AFVEWLIK([εLys-γGlu-γGlu-γGlu-γGlu-γGlu-C18 diacid])GGPSEPASLRHYYNWLTRQRY-NH2 [Compound 263, Y-Aib-E-G-T-F-T-S-D-Y-S-I-Aib-L-E-K-Q-A-Q-Aib-A-F-V-E-W-L-I-K(1,3)-GGPSEPASLRHYYNWLTRQRY-NH2.C18DA-gGlu-gGlu-gGlu-gGlu-gGlu-eLys(1,2)] | 9.49 | 7.80 | 9.92 | 8.82 | – | –
7 | Y[Aib]EGTFTSDYSI[Aib]LEKQAQ[Aib]AFVEWLIK([εLys-γGlu-γGlu-γGlu-γGlu-γGlu-C18 diacid])GGPSEGASLRHYYNWLTRQRY-NH2 [Compound 295, Y-Aib-E-G-T-F-T-S-D-Y-S-I-Aib-L-E-K-Q-A-Q-Aib-A-F-V-E-W-L-I-K(1,3)-GGPSEGASLRHYYNWLTRQRY-NH2.C18DA-gGlu-gGlu-glu-gGlu-gGlu-eLys(1,2)] | 9.85 | 7.96 | 9.52 | 9.01 | – | –
8 | H-Y[Aib]EGTFTSDYSI[Aib]LEKQAQ[Aib]AFVEWLIK([εLys-γGlu-γGlu-γGlu-γGlu-γGlu-γGlu-C20 diacid])GGPSEYESLRHYYNWLTRQRY-NH2 [Compound 93, Y-Aib-E-G-T-F-T-S-D-Y-S-I-Aib-L-E-K-Q-A-Q-Aib-A-F-V-E-W-L-I-K(1,3)-GGPSEYESLRHYYNWLTRQRY-NH2.C20DA-gGlu-gGlu-gGlu-gGlu-gGlu-gGlu-eLys(1,2)] | 9.66 | 7.82 | 9.85 | 8.63 | 8.05 | 7.07
9 | H-Y[Aib]EGTFTSDYSI[Aib]LEKQAQ[Aib]AFVEWLIK([AEEA-AEEA-γGlu-γGlu-γGlu-γGlu-γGlu-C20 diacid])GGPSSGASLRHYYNWLTRQRY-NH2 [Compound 229, Y-Aib-E-G-T-F-T-S-D-Y-S-I-Aib-L-E-K-Q-A-Q-Aib-A-F-V-E-W-L-I-K(1,3)-GGPSSGASLRHYYNWLTRQRY-NH2.C20DA-gGlu-gGlu-gGlu-gGlu-gGlu-OEG-OEG(1,2)] | 10.00 | 7.97 | 9.66 | 8.85 | – | 7.56
10 | H-Y[Aib]EGTFTSDYSI[Aib]LEKQAQ[Aib]AFVEWLIK([εLys-γGlu-γGlu-γGlu-γGlu-γGlu-γGlu-C20 diacid])GGPSSGASLR[Tle]YYNWLTRQRY-NH2 [Compound 119, Y-Aib-E-G-T-F-T-S-D-Y-S-I-Aib-L-E-K-Q-A-Q-Aib-A-F-V-E-W-L-I-K(1,3)-G-G-P-S-S-G-A-S-L-R-Tle-Y-Y-N-W-L-T-R-Q-R-Y-NH2.C20DA-gGlu-gGlu-gGlu-gGlu-gGlu-gGlu-eLys(1,2)] | 9.59 | 7.64 | 9.20 | – | – | –
11 | H-Y[Aib]EGTFTSDYSI[Aib]LEKQAQ[Aib]AFVEWLIK([εLys-γGlu-γGlu-γGlu-γGlu-γGlu-γGlu-C20 diacid])GGPSSGASLRHYYNWLTRQR[Tle]-NH2 [Compound 191, Y-Aib-E-G-T-F-T-S-D-Y-S-I-Aib-L-E-K-Q-A-Q-Aib-A-F-V-E-W-L-I-K(1,3)-GGPSSGASLRHYYNWLTRQR-Tle-NH2.C20DA-gGlu-gGlu-gGlu-gGlu-gGlu-gGlu-eLys(1,2)] | 9.77 | < 7.00 | 9.64 | 8.70 | – | < 6.00
12 | H-Y[Aib]EGTFTSDYSI[Aib]LEGQAQ[Aib]AFVEWLIK([εLys-γGlu-γGlu-γGlu-γGlu-γGlu-γGlu-C20 diacid])GGPSSGASLRHYYNWLTRQRY-NH2 [Compound 99, Y-Aib-E-G-T-F-T-S-D-Y-S-I-Aib-L-E-G-Q-A-Q-Aib-A-F-V-E-W-L-I-K(1,3)-GGPSSGASLRHYYNWLTRQRY-NH2.C20DA-gGlu-gGlu-gGlu-gGlu-gGlu-gGlu-eLys(1,2)] | 9.39 | 7.77 | 9.04 | – | – | –
